Assay results taken from US5436261A, “Benzospiroalkene heterocyclic compounds” (Adir et Compagnie, priority 1993, dated 1995).
Structures can show the parent of a compound that is named as a salt.

How the values were obtained:
dog femoral arteries = test: In vitro study on dog femoral arteries (contraction); format: cell-based, dog (mongrel); details: Canis lupus familiaris, dog femoral artery rings; for EC50: 37C, cumulative doses; for Emax: relative to maximum effect of 100 mM KCl, read-out: ARTERY Max
Procedure: (§1) In vitro study on dog femorai arteries and saphenous veins
(§2) The technique used is based on that described by FOWLER et al., (J. Pharmacol. Exp. Ther., 229, 712-718, 1984). Male or female mongrel dogs weighing approximately 15-25 kg were used as a source of organs. The animals are anesthetized with pentobarbital (30 mg/kg intravenously). The legs are incised and the vessels removed. They are placed in Krebs-Ringer fluid (118 mM NaCl; 25 mM NaHCO3; 10mM glucose; 4.7 mM KCl; 1.25 mM CaCl2; 1.19 mM MgSO4; 1.14 mM KH2 PO4) at room temperature and a stream of carbogen (95% O2, 5% CO2) is bubbled through. The fat is then carefully removed from these vessels, which are thereafter cut into rings 2 mm wide and mounted under a baseline tension of 4 g (femoral arteries) or 1 g (saphenous veins) in tanks thermostated at 37C containing Krebs-Ringer fluid with a stream of carbogen constantly bubbled through. A lower hook constitutes the fixed point, while the upper hook is connected to an isometric force gauge. The variations in tension are digitized, stored on disk and processed by a computer system. After mounting, the organs are left undisturbed for 90 minutes, rinsing being performed every 30 min. After readjustment of the baseline tension, a contraction is induced with a single dose of KCl (100 mM). After stabilization, washing and return to the baseline, a contraction is induced by a single dose of phenylephrine (submaximal concentrations) in order to regularize the following contractions. After washing and return to the baseline, an effect/concentration curve is plotted by adding cumulative doses of agonist (the spacing between the doses is on a semilogarithmic scale). This experiment enables the 50% effective concentration (EC50) to be calculated in the following manner: the tension values are first converted to percentages relative to the maximum effect produced by 100 mM KCl. This EC50 is determined by nonlinear regression by the SIMPLEX method (M. S. CACECI, Byte, 340-362, 1984), calculated according to the L. MICHAELIS and M. L. MENTEN model of the law of mass action (Blochem. Zeitschrift, 49, 333-369, 1913). E=(Emax*C^n)(EC^n +C^n) with E=effects; Emax=maximum effect; C=concentration; EC=EC50; n=HILL's number

pithed rats = test: In vivo study in pithed rats, blood pressure; design: species or system rat (Sprague-Dawley); details: Rattus norvegicus, iv, tertatolol pretreated, without prazosin or yohimbine, read-out: C20 Control (concentration that increases the pressure by 20 mm Hg)
Source text: (§3) In vivo study in PITBED RATS
(§4) Male Sprague-Dawley rats (300-400 g) are anesthetized with ether. The trachea is canulated, the spinal cord is destroyed by means of a steel rod and the animal is immediately placed under artificial respiration. The vagal nerves are sectioned. The carotid arteries are ligated; a catheter is placed in one and is used to record blood pressure. A further three catheters are placed in the jugular veins and the veins of the penis and are used for injections. The animals'temperature is maintained at 36° C. The animal is pretreated by an injection of tertatolol ([…]). The animal is also pretreated 10 minutes later with prazosin ([…]) or yohimbine (1 mg/kg) when it is desired to determine the alpha1 --or alpha2 -adrenergic properties of the product. Ten minutes later, increasing cumulative doses of the product are injected every 20 seconds. Variations in blood pressure are detected using a Statham P23XL pressure cell and are recorded. The pressure values are expressed in mmHg. This experiment enables the concentration that increases the pressure by 20 mm Hg (C2.sbsb.0) to be calculated by non-linear regression according to the Michaelis and Menten model of the law of mass action, as described above. The maximum effect obtained is then converted to a percentage relative to the maximum effect produced by phenylephrine. The alpha1 - or alpha2 -adrenergic components of the product are assessed by means of the ratio of the C2.sbsb.0 values obtained in the presence of prazosin or yohimbine to the values obtained in the absence of these antagonists. In pithed rats, the products of the invention produce prazosin- and yohimbine-sensitive hypertension.

alpha2-adrenergic = test: In vivo study in pithed rats, pretreatment with yohimbine (alpha2-adrenergic component); design: species or system rat (Sprague-Dawley); details: yohimbine (1 mg/kg) pretreatment
Source text: as §3, §4

dog saphenous veins = test: In vitro study on dog saphenous veins (contraction); format: cell-based, dog (mongrel); details: Canis lupus familiaris, dog saphenous vein rings; for EC50: 37C, cumulative doses; for Emax: relative to maximum effect of 100 mM KCl, read-out: VEIN Max
Procedure: as §1, §2

carotid blood flow = test: In vivo study of carotid blood flow in anesthetized dogs; design: species or system dog; dose or concentration left out as unconfirmed; details: i.v., n-6
Procedure: In vivo study of carotid blood flow in anesthetized dogs
Dogs (12-18kg) are anesthetized with pentobarbital (30mg/kg i.v.). Anesthesia is then maintained by a perfusion of 0.8 ml/h of 6% pentobarbital. The animals are placed under assisted respiration and their temperature is maintained at 37C (Harvard thermostated blanket). Blood pressure and heart rate are measured by means of a Millar probe in the fernoral artery or brachial artery, via a transducer and a Gould biotach. The blood flow in the carotid arteries is recorded by means of a Gould SP2202 electromagnetic flow meter.

| Structure (SMILES) | EC50 (dog femoral arteries) [µM] | Emax (dog femoral arteries) [%] | ED (20 mm Hg) (pithed rats) [mg/kg] | Ratio C20 treated/C20 control, Yohimbine (alpha2-adrenergic) | EC50 (dog saphenous veins) [µM] | Emax (dog saphenous veins) [%] | fall in carotid blood flow (carotid blood flow) [%] |
| --- | --- | --- | --- | --- | --- | --- | --- |
| C1=NC2(CCc3ccccc3C2)CN1 (centres unmarked) [Example 1, Spiro[(1,3-diaza-1-cyclopentene)-5,2'-(1',2',3',4'-tetrahydronaphthalene)]benzenesulfonate] | 5.9 | 19 | 0.004 | 4.7 | 1.3 | 98 | – |
| COc1cc2c(cc1O)CCC1(CNC=N1)C2 (centres unmarked) [Example 3, Spiro[(1,3-diaza-1-cyciopentene)-5,2'-(6'-hydroxy-7'-methoxy-1',2',3',4'-tetrahydronaphthalene)]fumarate] | – | – | 0.0009 | 2.9 | – | – | – |
| CC(C)Oc1ccc2c(c1)CCC1(CNC=N1)C2 (centres unmarked) [Example 5, Spiro[(1,3-diaza-1-cyclopentene)-5,2'-(6'-isopropyloxy-1',2',3',440-tetrahydronaphthalene)]fumarate] | – | – | 0.068 | 66 | – | – | – |
| COc1ccc2c(c1OC)CCC1(CNC=N1)C2 (centres unmarked) [Example 7, Spiro[(1,3-diaza-1-cyclopentene)-5,2'-(5',6'-dimethoxy-1',2',3',4'-tetrahydronaphthalene)]fumarate] | – | – | 0.137 | 2.4 | – | – | – |
| Cc1ccc2c(c1)CCC1(CNC=N1)C2 (centres unmarked) [Example 8, Spiro[(1,3-diaza-1-cyclopentene)-5,2'-(6'-methyl-1',2',3',4'-tetrahydronaphthalene)]fumarate] | 13 | 12 | – | – | 2.1 | 44 | – |
| COc1cc(C)cc2c1CCC1(CNC=N1)C2 (centres unmarked) [Example 9, Spiro[(1,3-diaza-1-cyciopentene)-5,2'-(5'-methoxy-7'-methyl-1',2',3',4'-tetrahydronaphthalene) ]fumarate] | 0.8 | 60 | – | – | 3.9 | 81 | – |
| Clc1cc(Cl)c2c(c1)CC1(CC2)CNC=N1 (centres unmarked) [Example 17, Spiro[(1,3-diaza-1-cyclopentene)-5,2'-(5',7'-dichloro-1',2',3',4'-tetrahydronaphthalene)]fumarate] | 24 | 10 | – | – | 1.9 | 44 | – |
| Cc1ccc2c(c1)CC1(CC2)CNC=N1 (centres unmarked) [Example 24, Spiro[(1,3-diaza-1-cyclopentene)-5,2'-(7'-methyl-1',2',3',4'-tetrahydronaphthalene)]fumarate] | 70 | 8 | 0.03 | 1.5 | 0.16 | 57 | – |
| C1=NC2(CN1)Cc1cccc3cccc(c13)C2 [Example 31, Spiro[(1,3-diaza-1-cyclopentene)-5,2'-(2,3'-dihydrophenalene)] 1/2 fumarate] | 0.5 | 10 | – | – | 1.6 | 44 | – |
| Cc1ccc2c(c1)C[C@@]1(CC2)CNC=N1 [Example 46, (S)-Spiro[(1,3-diaza-1-cyclopentene)-5,2'-(7'-methyl-1',2',3',4'-tetrahydronaphthalene)]fumarate] | 15 | 36 | 0.0068 | 3.4 | 1.86 | 48 | 62±4 |
